Measured values: patent publication US11912682B2, “Isoindolinone compounds” (Monte Rosa Therapeutics, Inc., priority 2021, dated 2024)

target: GSPT1 (Homo sapiens (Human), UniProt P15170+Q96SW2); test: immunofluorescence assay for GSPT1 degradation in CAL-51 cells (Example 10); assay type: cell-based; conditions: CAL-51 cells, 6 h; read-out: IF Class (GSPT1 degradation DC50)
Description: The representative compounds were tested in an immunofluorescence assay for their activity to degrade GSPT1. […] Compounds were stored at 10 mM DMSO stocks. […] Cells were subsequently rinsed with PBS and fixed in 10% Formalin solution (50 μl, Sigma HT5011)) for 20 mins at room temperature. […] Following three further PBS washes, 50 μL blocking buffer (1% BSA, Sigma A4503, in PBS) was added for 45 min for signal-to noise reduction. Primary antibody (human GSPT1, Sigma HPA052488) was diluted in blocking buffer (dil.1/300, 35 μL/well) and incubated with the cells overnight at 4° C. […] After three final PBS washes, samples were conserved in 100 μL PBS in the dark, until measurement. Image acquisition was performed on the Operetta High-Content Imager (Perkin-Elmer). […] For the determination of GSPT1 DC50 values, a custom algorithm implemented in the PerkinElmer image analysis software Harmony-Acapella® was developed. After user-defined setting of adjustment parameters, the analysis was run identically without human intervention for all image fields. DAPI staining of the nuclei was used to determine the location of cells using standard nuclei detection modules. Segmentation artifacts were removed by threshold-based filters for area, roundness and intensity. The outline of the cells was determined analogously from the sum of the normalized, smoothed DAPI and Actin channel, starting from each nucleus. […] GSPT1 degradation (DC50) was calculated after normalization to controls and data import in CDD vault Database, using non-linear regression.

GSPT1, sequence (P15170 whole entry): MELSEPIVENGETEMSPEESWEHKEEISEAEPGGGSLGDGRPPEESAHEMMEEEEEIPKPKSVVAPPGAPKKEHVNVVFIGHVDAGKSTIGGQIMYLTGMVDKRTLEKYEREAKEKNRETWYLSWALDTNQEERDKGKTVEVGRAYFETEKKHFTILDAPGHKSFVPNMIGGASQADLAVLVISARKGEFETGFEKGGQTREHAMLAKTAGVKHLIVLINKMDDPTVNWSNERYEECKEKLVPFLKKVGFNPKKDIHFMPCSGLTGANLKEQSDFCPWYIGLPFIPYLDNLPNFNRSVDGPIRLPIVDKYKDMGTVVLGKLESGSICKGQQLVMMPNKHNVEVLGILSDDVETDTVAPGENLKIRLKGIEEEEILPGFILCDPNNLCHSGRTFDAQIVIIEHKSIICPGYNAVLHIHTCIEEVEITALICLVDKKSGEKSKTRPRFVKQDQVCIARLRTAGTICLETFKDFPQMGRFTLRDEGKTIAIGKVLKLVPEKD
GSPT1, sequence (Q96SW2 whole entry): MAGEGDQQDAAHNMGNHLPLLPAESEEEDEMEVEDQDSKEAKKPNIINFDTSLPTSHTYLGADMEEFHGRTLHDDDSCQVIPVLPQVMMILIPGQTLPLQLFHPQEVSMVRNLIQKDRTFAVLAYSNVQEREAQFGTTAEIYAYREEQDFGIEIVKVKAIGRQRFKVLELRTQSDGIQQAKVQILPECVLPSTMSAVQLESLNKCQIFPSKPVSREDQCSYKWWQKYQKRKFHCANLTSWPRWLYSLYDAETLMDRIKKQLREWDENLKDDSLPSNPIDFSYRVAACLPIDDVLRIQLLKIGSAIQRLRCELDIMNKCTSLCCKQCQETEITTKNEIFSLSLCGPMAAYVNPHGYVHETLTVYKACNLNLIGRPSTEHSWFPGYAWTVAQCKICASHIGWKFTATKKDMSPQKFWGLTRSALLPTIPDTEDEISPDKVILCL
GSPT1, sequence (Q16531 2-1140 partner): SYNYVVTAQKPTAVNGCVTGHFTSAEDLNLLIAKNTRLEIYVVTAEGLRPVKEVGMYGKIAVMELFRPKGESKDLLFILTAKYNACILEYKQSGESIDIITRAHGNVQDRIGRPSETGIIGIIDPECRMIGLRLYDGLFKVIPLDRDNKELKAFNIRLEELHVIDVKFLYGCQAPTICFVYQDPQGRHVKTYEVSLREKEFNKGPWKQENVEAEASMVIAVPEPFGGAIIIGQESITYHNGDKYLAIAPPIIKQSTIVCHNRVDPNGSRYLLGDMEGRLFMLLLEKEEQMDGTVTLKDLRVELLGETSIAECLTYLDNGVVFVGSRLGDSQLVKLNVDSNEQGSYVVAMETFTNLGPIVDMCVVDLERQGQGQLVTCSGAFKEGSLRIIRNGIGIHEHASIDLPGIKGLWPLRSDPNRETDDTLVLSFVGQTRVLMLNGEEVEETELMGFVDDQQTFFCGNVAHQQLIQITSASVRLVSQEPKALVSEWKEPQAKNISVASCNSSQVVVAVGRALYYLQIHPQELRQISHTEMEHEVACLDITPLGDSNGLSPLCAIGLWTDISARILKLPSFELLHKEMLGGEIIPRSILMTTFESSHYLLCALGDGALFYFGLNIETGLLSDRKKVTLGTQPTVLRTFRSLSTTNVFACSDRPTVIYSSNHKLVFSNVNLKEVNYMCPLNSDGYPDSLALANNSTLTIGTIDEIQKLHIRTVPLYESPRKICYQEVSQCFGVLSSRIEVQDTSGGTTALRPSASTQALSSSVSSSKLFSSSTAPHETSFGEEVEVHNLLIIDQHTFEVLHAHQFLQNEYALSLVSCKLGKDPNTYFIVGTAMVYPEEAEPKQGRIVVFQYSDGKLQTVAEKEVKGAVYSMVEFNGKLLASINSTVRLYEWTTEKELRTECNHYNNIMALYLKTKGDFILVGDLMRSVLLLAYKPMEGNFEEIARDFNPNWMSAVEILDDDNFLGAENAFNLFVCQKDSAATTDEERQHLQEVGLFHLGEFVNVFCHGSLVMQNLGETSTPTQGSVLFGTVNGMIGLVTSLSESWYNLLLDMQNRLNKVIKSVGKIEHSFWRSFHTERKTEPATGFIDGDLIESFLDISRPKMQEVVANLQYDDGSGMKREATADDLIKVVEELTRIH

Compound | DC50
Cc1cc2c(c(NC(=O)OCc3ccc4c(c3)C(=O)N(C3CCC(=O)NC3=O)C4)c1)OCC2 (stereo not shown) [Compound 182] | > 300 nM
Cc1ccc(NC(=O)OCc2ccc3c(c2)C(=O)N(C2CCC(=O)NC2=O)C3)nc1Cl (stereo not shown) [Compound 183, (2-(2,6-dioxopiperidin-3-yl)-3-oxoisoindolin-5-yl)methyl (6-chloro-5-methylpyridin-2-yl)carbamate] | 30 to 300 nM
Cc1cc(NC(=O)OCc2ccc3c(c2)C(=O)N(C2CCC(=O)NC2=O)C3)cc(C#N)c1C (stereo not shown) [Compound 186] | < 30 nM
O=C1CCC(N2Cc3ccc(COC(=O)Nc4cc(Cl)cc5c4OCC5)cc3C2=O)C(=O)N1 (stereo not shown) [Compound 189] | 30 to 300 nM
O=C1CCC(N2Cc3ccc(COC(=O)NC45CC(F)(C4)C5)cc3C2=O)C(=O)N1 (stereo not shown) [Compound 190] | > 300 nM
O=C1CCC(N2Cc3ccc(COC(=O)Nc4ccc(F)c(OC(F)F)c4F)cc3C2=O)C(=O)N1 (stereo not shown) [Compound 191, (2-(2,6-dioxopiperidin-3-yl)-3-oxoisoindolin-5-yl)methyl (3-(difluoromethoxy)-2,4-difluorophenyl) carbamate] | 30 to 300 nM
C[C@@H]1CCCN1c1ccc(NC(=O)OCc2ccc3c(c2)C(=O)N(C2CCC(=O)NC2=O)C3)nc1 (stereo partly shown) [Compound 192] | 30 to 300 nM
Cc1cc(NC(=O)OCc2ccc3c(c2)C(=O)N(C2CCC(=O)NC2=O)C3)ncc1N1CCCC1 (stereo not shown) [Compound 194, (2-(2,6-dioxopiperidin-3-yl)-3-oxoisoindolin-5-yl)methyl (4-methyl-5-(pyrrolidin-1-yl)pyridin-2-yl) carbamate] | > 300 nM
Cc1cc(F)c(NC(=O)OCc2ccc3c(c2)C(=O)N(C2CCC(=O)NC2=O)C3)cc1Br (stereo not shown) [Compound 197, (2-(2,6-dioxopiperidin-3-yl)-3-oxoisoindolin-5-yl)methyl (5-bromo-2-fluoro-4-methylphenyl)carbamate] | 30 to 300 nM
O=C1CCC(N2Cc3ccc(COC(=O)NC45CC(N6CCCCC6)(C4)C5)cc3C2=O)C(=O)N1 (stereo not shown) [Compound 198] | > 300 nM
O=C1CCC(N2Cc3ccc(COC(=O)Nc4cc(F)c(OC(F)F)c(F)c4)cc3C2=O)C(=O)N1 (stereo not shown) [Compound 206, (2-(2,6-dioxopiperidin-3-yl)-3-oxoisoindolin-5-yl) methyl (4-(difluoromethoxy)-3,5-difluorophenyl)carbamate] | 30 to 300 nM
O=C1CCC(N2Cc3ccc(COC(=O)Nc4ccc(C(O)C(F)(F)F)cc4)cc3C2=O)C(=O)N1 (stereo not shown) [Compound 209, (2-(2,6-dioxopiperidin-3-yl)-3-oxoisoindolin-5-yl)methyl (4-(2,2,2-trifluoro-1-hydroxyethyl)phenyl) carbamate] | > 300 nM
Cc1cc(F)c(NC(=O)OCc2ccc3c(c2)C(=O)N(C2CCC(=O)NC2=O)C3)c(F)c1Cl (stereo not shown) [Compound 211, (2-(2,6-dioxopiperidin-3-yl)-3-oxoisoindolin-5-yl)methyl (3-chloro-2,6-difluoro-4-methylphenyl)carbamate] | 30 to 300 nM

Other lines, results leading:

DC50 | Compound
< 30 nM | Cc1ccc(NC(=O)OCc2ccc3c(c2)C(=O)N(C2CCC(=O)NC2=O)C3)c(F)c1Cl (stereo not shown) [Compound 179, (2-(2,6-dioxopiperidin-3-yl)-3-oxoisoindolin-5-yl) methyl (3-chloro-2-fluoro-4-methylphenyl)carbamate]
> 300 nM | CC(C)(C)[C@H]1C[C@@H](NC(=O)OCc2ccc3c(c2)C(=O)N(C2CCC(=O)NC2=O)C3)C1 (stereo partly drawn) [Compound 184, cis-(2-(2,6-dioxopiperidin-3-yl)-3-oxoisoindolin-5-yl)methyl ((1s,3s)-3-(tert-butyl)cyclobutyl)carbamate]
> 300 nM | CC(C)(C)[C@H]1C[C@H](NC(=O)OCc2ccc3c(c2)C(=O)N(C2CCC(=O)NC2=O)C3)C1 (stereo partly drawn) [Compound 185, trans-(2-(2,6-dioxopiperidin-3-yl)-3-oxoisoindolin-5-yl)methyl ((1s,3s)-3-(tert-butyl)cyclobutyl)carbamate]
> 300 nM | O=C1CCC(N2Cc3ccc(COC(=O)NC45CC(C4)C5)cc3C2=O)C(=O)N1 (stereo not shown) [Compound 193, (2-(2,6-dioxopiperidin-3-yl)-3-oxoisoindolin-5-yl)methyl bicyclo[1.1.1]pentan-1-ylcarbamate]
> 300 nM | CC(C)(O)c1ccc(NC(=O)OCc2ccc3c(c2)C(=O)N(C2CCC(=O)NC2=O)C3)cc1 (stereo not shown) [Compound 195, (2-(2,6-dioxopiperidin-3-yl)-3-oxoisoindolin-5-yl)methyl (4-(2-hydroxypropan-2-yl)phenyl)carbamate]
> 300 nM | CC(C)(O)c1ccc(NC(=O)OCc2ccc3c(c2)C(=O)N(C2CCC(=O)NC2=O)C3)cn1 (stereo not shown) [Compound 199, (2-(2,6-dioxopiperidin-3-yl)-3-oxoisoindolin-5-yl)methyl (6-(2-hydroxypropan-2-yl)pyridin-3-yl)carbamate]
30 to 300 nM | O=C1CCC(N2Cc3ccc(COC(=O)Nc4cc(OC(F)(F)F)c(F)cc4F)cc3C2=O)C(=O)N1 (stereo not shown) [Compound 200, (2-(2,6-dioxopiperidin-3-yl)-3-oxoisoindolin-5-yl)methyl (2,4-difluoro-5-(trifluoromethoxy)phenyl)carbamate]
30 to 300 nM | Cc1cc(F)c(NC(=O)OCc2ccc3c(c2)C(=O)N(C2CCC(=O)NC2=O)C3)cc1OC(F)F (stereo not shown) [Compound 201, (2-(2,6-dioxopiperidin-3-yl)-3-oxoisoindolin-5-yl) methyl (5-(difluoromethoxy)-2-fluoro-4-methylphenyl)carbamate]
> 300 nM | O=C1CCC(N2Cc3ccc(COC(=O)NC45CC(CF)(C4)C5)cc3C2=O)C(=O)N1 (stereo not shown) [Compound 202, (2-(2,6-dioxopiperidin-3-yl)-3-oxoisoindolin-5-yl)methyl (3-(fluoromethyl)bicyclo[1.1.1]pentan-1-yl) carbamate]
> 300 nM | COC(=O)C12CC(NC(=O)OCc3ccc4c(c3)C(=O)N(C3CCC(=O)NC3=O)C4)(C1)C2 (stereo not shown) [Compound 203, methyl 3-((((2-(2,6-dioxopiperidin-3-yl)-3-oxoisoindolin-5-yl)methoxy)carbonyl)amino)bicyclo[1.1.1]pentane-1-carboxylate]
30 to 300 nM | Cc1cc(F)c(NC(=O)OCc2ccc3c(c2)C(=O)N(C2CCC(=O)NC2=O)C3)cc1OC(F)(F)F (stereo not shown) [Compound 204, (2-(2,6-dioxopiperidin-3-yl)-3-oxoisoindolin-5-yl) methyl (2-fluoro-4-methyl-5-(trifluoromethoxy)phenyl)carbamate]
30 to 300 nM | O=C1CCC(N2Cc3ccc(COC(=O)Nc4cc(C5CC5)ccc4F)cc3C2=O)C(=O)N1 (stereo not shown) [Compound 207, (2-(2,6-dioxopiperidin-3-yl)-3-oxoisoindolin-5-yl)methyl (5-cyclopropyl-2-fluorophenyl) carbamate]
> 300 nM | Cc1cc(F)c(NC(=O)OCc2ccc3c(c2)C(=O)N(C2CCC(=O)NC2=O)C3)cc1C (stereo not shown) [Compound 208, (2-(2,6-dioxopiperidin-3-yl)-3-oxoisoindolin-5-yl)methyl (2-fluoro-4,5-dimethylphenyl)carbamate]
< 30 nM | O=C1CCC(N2Cc3ccc(COC(=O)Nc4cc(F)c5c(c4)CCO5)cc3C2=O)C(=O)N1 (stereo not shown) [Compound 212, (2-(2,6-dioxopiperidin-3-yl)-3-oxoisoindolin-5-yl)methyl (7-fluoro-2,3-dihydrobenzofuran-5-yl)carbamate]

same assay, conditions: read-out: IF Class (GSPT1 degradation DC50)

Compound | DC50
Cc1cc(NC(=O)OCc2ccc3c(c2)C(=O)N(C2CCC(=O)NC2=O)C3)cc(Cl)c1C#N (stereo not shown) [Compound 177, (2-(2,6-diox opiperidin-3-yl)-3-oxoisoindolin-5-yl)methyl(3-chloro-4-cyano-5-methylphenyl)carbamate] | 30 to 300 nM
